According to patent US4987129A, “Cephalosporin derivatives” (priority 1987, dated 1991):
≈ marks a conversion by molar mass, not a printed value. Structures can show the parent of a compound that is named as a salt. Where two headings read alike, the source gives them in different places.

Experiments:
Format in all cases: cell-based
[1] = test system: Staphylococcus aureus Smith; assay: minimum inhibitory concentration (MIC), standard method of Japan Society of Chemotherapy; details: Tables 2A, 2B
Description: (§1) The minimum inhibitory concentration (MIC) of the compounds obtained in the above Examples were measured according to the standard method of Japan Society of Chemotherapy.

Escherichia coli ML4704 = assay: minimum inhibitory concentration (MIC)
Description: as §1

[2] = test system: Enterobacter cloacae 908RN; assay: minimum inhibitory concentration (MIC)
Description: as §1

[3] = test system: Klebsiella pneumoniae 4at521; assay: minimum inhibitory concentration (MIC); details: Tables 2A, 2B
Description: as §1

Proteus vulgris GN7919 = assay: minimum inhibitory concentration (MIC)
Description: as §1

[4] = test system: Pseudomonas aeruginosa GN10362; assay: minimum inhibitory concentration (MIC); details: Tables 2A, 2B
Description: as §1

Escherichia coli GN5482 = assay: minimum inhibitory concentration (MIC); details: Tables 2A, 2B
Description: as §1

[5] = test system: Staphylococcus aureus IAA498; assay: minimum inhibitory concentration (MIC); details: Tables 2A, 2B
Description: as §1

[6] = test system: Enterobacter cloacae GN7471; assay: minimum inhibitory concentration (MIC)
Description: as §1

[7] = test system: Pseudomonas aeruginosa 5D58-1; assay: minimum inhibitory concentration (MIC); details: 5D581, Tables 2A, 2B
Description: as §1

[8] = test system: Serratia marcescens GN10857; assay: minimum inhibitory concentration (MIC); details: Tables 2A, 2B
Description: as §1

[9] = test system: Citrobacter freundii GN7391; assay: minimum inhibitory concentration (MIC)
Description: as §1

[10] = test system: Pseudomonas aeruginosa 4au542; assay: minimum inhibitory concentration (MIC); details: Tables 2A, 2B
Description: as §1

[11] = test system: Pseudomonas maltophilia OF247; assay: minimum inhibitory concentration (MIC); details: Stenotrophomonas maltophilia, Tables 2A, 2B
Description: as §1

[12] = test system: Pseudomonas cepacia OF189; assay: minimum inhibitory concentration (MIC); details: Burkholderia cepacia, Tables 2A, 2B
Description: as §1

[13] = Escherichia coli ML4704, Tables 2A, 2B, read-out: MIC
[14] = Enterobacter cloacae 908RN, Tables 2A, 2B, read-out: MIC
[15] = Proteus vulgris GN7919, Tables 2A, 2B, read-out: MIC
[16] = Enterobacter cloacae GN7471, Tables 2A, 2B, read-out: MIC
[17] = Citrobacter freundii GN7391, Tables 2A, 2B, read-out: MIC
[18] = Enterobacter cloacae 908RN, Tables 2A, 2B

Row | SMILES | MIC [1] [µg/mL] | MIC (Escherichia coli ML4704; [13]) [µg/mL] | MIC [2, 14] [µg/mL] | MIC [3] [µg/mL] | MIC (Proteus vulgris GN7919; [15]) [µg/mL] | MIC [4] [µg/mL] | MIC (Escherichia coli GN5482) [µg/mL] | MIC [5] [µg/mL] | MIC [6, 16] [µg/mL] | MIC [7] [µg/mL] | MIC [8] [µg/mL] | MIC [9, 17] [µg/mL] | MIC [10] [µg/mL] | MIC [2, 18] [µg/mL] | MIC [11] [µg/mL] | MIC [12] [µg/mL] | further results
1 | CON=C(C(=O)NC1C(=O)N2C(C(=O)O)=C(CSc3cc(C)nc4nc(CO)nn34)CSC12)c1csc(N)n1 (stereo not drawn) [Example 17, 7-[2-(2-amino-1,3-thiazol-4-yl)-2-(methoxyimino)acetamido]-3-[(2-hydroxymethyl-5-methyl-s-triazolo[1,5-a]pyrimidin-7-yl)thiomethyl]-3-cephem-4-carboxylic acid.hydrochloride] | 0.39 | 0.025 | 50 | 0.39 | 25 | 100 | 0.1 | 12.5 | 3.13 | 100 | 12.5 | 50 | 100 |  |  |  | 
2 | Cc1cc(SCC2=C(C(=O)O)N3C(=O)C(NC(=O)C(=NOC(C)(C)C(=O)O)c4csc(N)n4)[C@H]3SC2)n2nc(CO)nc2n1 (stereo partly drawn) [Example 20, 7-[2-(2-amino-1,3-thiazol-4-yl)-2-(1-carboxy-1-methylethoxyimino)acetamido]-3-[(2-hydroxymethyl-5-methyl-s-triazolo[1,5-a]pyrimidin-7-yl)thiomethyl]-3-cephem-4-carboxylic acid] | 3.13 (≈ 4.72 µM) | 0.39 (≈ 0.588 µM) |  | 0.78 (≈ 1.18 µM) | 3.13 (≈ 4.72 µM) | 12.5 (≈ 18.8 µM) | 0.78 (≈ 1.18 µM) | 6.25 (≈ 9.42 µM) | 6.25 (≈ 9.42 µM) | 6.25 (≈ 9.42 µM) | 12.5 (≈ 18.8 µM) | > 100 | 12.5 (≈ 18.8 µM) | 100 (≈ 151 µM) |  |  | 
3 | COCc1nc2nc(C)cc(SCC3=C(C(=O)O)N4C(=O)C(NC(=O)C(=NOC(C)(C)C(=O)NNC(=O)c5ccc(O)c(O)c5)c5csc(N)n5)C4SC3)n2n1 (stereo not drawn) [Example 24, 7-{2-[2-amino-1,3-thiazol-4-yl]-2-[1-(3-(3,4-dihydroxybenzoyl)carbazoyl)-1-methylethoxyimino]acetamido}-3-[(2-methoxymethyl-5-methyl-s-triazolo[1,5-a]-pyrimidin-7-yl)thiomethyl]-3-cephem-4-carboxylic acid.hydrochlride] | 3.13 (≈ 3.78 µM) | 0.025 (≈ 0.0302 µM) | 6.25 (≈ 7.55 µM) | 0.025 (≈ 0.0302 µM) | 1.56 (≈ 1.88 µM) | 0.05 (≈ 0.0604 µM) | 0.025 (≈ 0.0302 µM) | 6.25 (≈ 7.55 µM) | 3.13 (≈ 3.78 µM) | 0.05 (≈ 0.0604 µM) | 0.39 (≈ 0.471 µM) | 12.5 (≈ 15.1 µM) | 0.2 (≈ 0.242 µM) |  |  |  | 
4 | COCc1nc2nc(C)cc(SCC3=C(C(=O)O)N4C(=O)C(NC(=O)C(=NOC)c5csc(N)n5)C4SC3)n2n1 (stereo not drawn) [Example 26] | 0.78 (≈ 1.29 µM) | 0.05 (≈ 0.0826 µM) | 50 (≈ 82.6 µM) | 1.56 (≈ 2.58 µM) | 25 (≈ 41.3 µM) | 100 (≈ 165 µM) | 0.39 (≈ 0.644 µM) | 25 (≈ 41.3 µM) | 6.25 (≈ 10.3 µM) | 100 (≈ 165 µM) | 25 (≈ 41.3 µM) | 50 (≈ 82.6 µM) | > 100 |  |  |  | 
5 | CC(C)(ON=C(C(=O)NC1C(=O)N2C(C(=O)O)=C(CSc3cc(C(=O)O)nc4nc(CO)nn34)CSC12)c1csc(N)n1)C(=O)NNC(=O)c1ccc(O)c(O)c1 (stereo not drawn) [Example 30, 7-{2-[2-amino-1,3-thiazol-4-yl]-2-[1-(3-(3,4-dihydroxybenzoyl)carbazoyl)-1-methylethoxyimino]acetamido}-3-[(5-carboxy-2-hydroxymethyl-s-triazolo[1,5-a]-pyrimidin-7-yl)thiomethyl]-3-cephem-4-carboxylic acid.hydrochlride] | 12.5 (≈ 14.8 µM) | 0.025 (≈ 0.0296 µM) | 1.56 (≈ 1.85 µM) | 0.025 (≈ 0.0296 µM) | 3.13 (≈ 3.71 µM) | 0.025 (≈ 0.0296 µM) | 0.05 (≈ 0.0593 µM) | 25 (≈ 29.6 µM) | 0.78 (≈ 0.924 µM) | 0.1 (≈ 0.119 µM) | 0.78 (≈ 0.924 µM) | 1.56 (≈ 1.85 µM) | 0.2 (≈ 0.237 µM) |  |  |  | 
6 | CON=C(C(=O)NC1C(=O)N2C(C(=O)O)=C(CSc3cc(C(=O)O)nc4nc(CO)nn34)CSC12)c1csc(N)n1 (stereo not drawn) [Example 31] | 6.25 (≈ 10.1 µM) | 0.1 (≈ 0.161 µM) |  | 0.2 (≈ 0.322 µM) | 50 (≈ 80.4 µM) | 100 (≈ 161 µM) | 0.2 (≈ 0.322 µM) | 12.5 (≈ 20.1 µM) | 6.25 (≈ 10.1 µM) | > 100 | 25 (≈ 40.2 µM) | 100 (≈ 161 µM) | > 100 | 100 (≈ 161 µM) |  |  | 
7 | Cc1nc2nc(CO)cc(SCC3=C(C(=O)[O-])N4C(=O)C(NC(=O)C(=NOC(C)(C)C(=O)NNC(=O)c5ccc(O)c(O)c5)c5csc(N)n5)[C@H]4SC3)n2n1.[Na+] (stereo partly drawn) [Example 37, sodium 7-{2-[2-amino-1,3-thiazol-4-yl]-2-[1-(3-(3,4-dihydroxybenzoyl)carbazoyl)-1-methylethoxyimino]acetamido}-3-[(5-hydroxymethyl-2-methyl-s-triazolo[1,5-a]pyrimidin-7-yl)thiomethyl]-3-cephem-4-carboxylate] | 3.13 |  |  | 0.012 |  | 0.1 | 0.05 | 6.25 |  | 0.1 | 0.39 |  | 0.2 |  | 0.39 | 0.025 | MIC (Escherichia coli ML4704; Escherichia coli, ML4704): 0.1 µg/mL; MIC [2]: 1.56 µg/mL; MIC (Proteus vulgris GN7919): 1.56 µg/mL; MIC ([6]; Enterobacter cloacae, GN7471): 1.56 µg/mL; MIC ([9]; Citrobacter freundii, GN7391): 6.25 µg/mL
8 | CON=C(C(=O)NC1C(=O)N2C(C(=O)O)=C(CSc3cc(CO)nc4nc(C)nn34)CSC12)c1csc(N)n1 (stereo not drawn) [Example 38] | 0.78 (≈ 1.32 µM) | 0.05 (≈ 0.0845 µM) | 50 (≈ 84.5 µM) | 0.78 (≈ 1.32 µM) | 6.25 (≈ 10.6 µM) | 100 (≈ 169 µM) | 0.1 (≈ 0.169 µM) | 12.5 (≈ 21.1 µM) | 3.13 (≈ 5.29 µM) | 100 (≈ 169 µM) | 25 (≈ 42.3 µM) | 25 (≈ 42.3 µM) | > 100 |  | 50 (≈ 84.5 µM) | 25 (≈ 42.3 µM) | 
9 | CC(C)(ON=C(C(=O)NC1C(=O)N2C(C(=O)[O-])=C(CSc3cc(CO)nc4nc(CO)nn34)CS[C@H]12)c1csc(N)n1)C(=O)NNC(=O)c1ccc(O)c(O)c1.[Na+] (stereo partly drawn) [Example 42, sodium 7-{2-[2-amino-1,3-thiazol-4-yl]-2[1-(3-(3,4-dihydroxybenzoyl)carbazoyl)-1-methylethoxyimino]acetamido}-3-[(2,5-bis(hydroxymethyl)-s-triazolo[1,5-a]pyrimidin-7 yl)thiomethyl]-3-cephem-4-carboxylate] | 3.13 |  |  | 0.2 |  | 0.1 | 0.1 | 6.25 |  | 0.1 | 0.39 |  | 0.2 |  | 0.78 | 0.025 | MIC (Escherichia coli ML4704; Escherichia coli, ML4704): 0.1 µg/mL; MIC [2]: 3.13 µg/mL; MIC (Proteus vulgris GN7919): 3.13 µg/mL; MIC ([6]; Enterobacter cloacae, GN7471): 1.56 µg/mL; MIC ([9]; Citrobacter freundii, GN7391): 6.25 µg/mL
10 | Cc1cc(SCC2=C(C(=O)O)N3C(=O)C(NC(=O)C(=NOC(C)(C)C(=O)NN)c4csc(N)n4)C3SC2)n2nc(CO)nc2n1 (stereo not drawn) [Example 43, 7-[2-(2-amino-1,3-thiazol-4-yl)-2-(1-carbazoyl-1-methylethoxyimino)acetamido]-3-[(2-hydroxymethyl5-methyl-s-triazolo[1,5-a]pyrimidin-7-yl)thiomethyl]-3-cephem-4-carboxylate.dihydrochloride] | 6.25 | 0.2 |  | 3.13 | 50 | 25 | 0.39 | 12.5 | 25 | 25 | 50 | 100 | 100 | > 100 | 50 | 50 | 
11 | Cc1cc(SCC2=C(C(=O)[O-])N3C(=O)C(NC(=O)C(=NOC(C)(C)C(=O)NN=Cc4ccc(O)c(O)c4)c4csc(N)n4)[C@H]3SC2)n2nc(CO)nc2n1.[Na+] (stereo partly drawn) [Example 44, sodium 7-{2-[2-amino-1,3-thiazol-4-yl]-2-[1-(3-(3,4-dihydroxybenzylidene)carbazoyl)-1-methylethoxyimino]acetamido}-3-[(2-hydroxymethyl-5-methyl-s-triazolo[1,5-a]pyrimidin-7-yl)thiomethyl]-3-cephem-4-carboxylate] | 3.13 |  |  | 0.39 |  | 0.78 | 0.1 | 6.25 |  | 0.39 | 0.78 |  | 0.78 |  | 12.5 | 0.2 | MIC (Escherichia coli ML4704; Escherichia coli, ML4704): 0.39 µg/mL; MIC [2]: 12.5 µg/mL; MIC (Proteus vulgris GN7919): 12.5 µg/mL; MIC ([6]; Enterobacter cloacae, GN7471): 1.56 µg/mL; MIC ([9]; Citrobacter freundii, GN7391): 12.5 µg/mL
12 | COCc1nc2nc(C)cc(SCC3=C(C(=O)O)N4C(=O)C(NC(=O)C(=NOC(C)(C)C(=O)NN)c5csc(N)n5)C4SC3)n2n1 (stereo not drawn) [Example 47] | 6.25 (≈ 9.03 µM) | 0.2 (≈ 0.289 µM) |  | 6.25 (≈ 9.03 µM) | 50 (≈ 72.3 µM) | 50 (≈ 72.3 µM) | 0.78 (≈ 1.13 µM) | 12.5 (≈ 18.1 µM) | 50 (≈ 72.3 µM) | 50 (≈ 72.3 µM) | 100 (≈ 145 µM) | > 100 | > 100 | > 100 | 100 (≈ 145 µM) | 100 (≈ 145 µM) | 
